Test results published in ChEMBL document CHEMBL1909046, “DrugMatrix in vitro pharmacology data”.

Tests used:
[1] = DRUGMATRIX: Interleukin IL-1 radioligand binding (ligand: [125I] interleukin 1beta); format: cell membranes, Membrane; conditions: nih3t3; Not Active = under 50% inhibition at 10 µM
[2] = DRUGMATRIX: Glutamate, NMDA, Agonism radioligand binding (ligand: [3H] CGP-39653); format: cell membranes, Rattus norvegicus, Wistar, Cerebral cortex, Membrane; conditions: Not Active = under 50% inhibition at 10 µM
[3] = DRUGMATRIX: Glutamate, NMDA, Phencyclidine radioligand binding (ligand: [3H] TCP); format: cell membranes, Rattus norvegicus, Wistar, Cerebral cortex, Membrane; conditions: Not Active = under 50% inhibition at 10 µM
[4] = target: Tyrosine-protein kinase Lck (Homo sapiens, UniProt P06239); assay: DRUGMATRIX: Protein Tyrosine Kinase, LCK enzyme inhibition (substrate: Poly(Glu:Tyr)); format: cell-based, Insect cells; conditions: insect cells; Not Active = under 50% inhibition at 10 µM
Sequence of Tyrosine-protein kinase Lck (P06239 whole entry): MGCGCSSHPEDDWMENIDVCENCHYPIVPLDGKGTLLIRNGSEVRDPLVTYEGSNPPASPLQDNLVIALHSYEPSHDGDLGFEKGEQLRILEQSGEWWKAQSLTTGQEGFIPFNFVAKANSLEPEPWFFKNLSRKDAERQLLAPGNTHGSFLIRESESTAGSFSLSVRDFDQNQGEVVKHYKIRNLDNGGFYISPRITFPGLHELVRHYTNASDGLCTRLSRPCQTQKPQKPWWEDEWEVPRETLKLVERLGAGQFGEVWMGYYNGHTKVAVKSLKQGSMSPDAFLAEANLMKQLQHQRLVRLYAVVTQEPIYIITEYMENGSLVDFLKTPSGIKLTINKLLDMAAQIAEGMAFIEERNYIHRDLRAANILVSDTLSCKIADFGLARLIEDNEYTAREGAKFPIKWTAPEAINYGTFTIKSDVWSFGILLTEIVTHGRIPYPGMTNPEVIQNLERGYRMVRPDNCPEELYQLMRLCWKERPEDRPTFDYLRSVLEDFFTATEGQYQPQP

[5] = target: T1, Neuropeptide Y receptor type 2 (Homo sapiens, UniProt P49146); format: cell membranes, Membrane; conditions: kan-ts; note: in other assays of this panel Not Active means under 50% inhibition at 10 µM
T1 sequence (P49146 whole entry): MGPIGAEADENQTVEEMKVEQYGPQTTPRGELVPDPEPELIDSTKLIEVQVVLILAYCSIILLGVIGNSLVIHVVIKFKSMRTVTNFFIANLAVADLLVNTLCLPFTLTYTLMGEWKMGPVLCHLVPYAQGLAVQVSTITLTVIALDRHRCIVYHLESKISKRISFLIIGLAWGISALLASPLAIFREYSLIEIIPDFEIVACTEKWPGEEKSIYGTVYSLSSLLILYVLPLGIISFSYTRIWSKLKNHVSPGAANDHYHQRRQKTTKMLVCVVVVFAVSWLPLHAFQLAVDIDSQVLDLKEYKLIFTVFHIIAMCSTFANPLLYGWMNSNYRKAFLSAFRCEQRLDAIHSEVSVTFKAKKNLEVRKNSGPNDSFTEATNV

[6] = target: Beta-3 adrenergic receptor (Homo sapiens, UniProt P13945); assay: DRUGMATRIX: Adrenergic beta3 radioligand binding (ligand: [125I] Cyanopindolol); format: cell membranes, HEK293, Membrane; conditions: hek293; Not Active = under 50% inhibition at 10 µM
Sequence of Beta-3 adrenergic receptor (P13945 whole entry): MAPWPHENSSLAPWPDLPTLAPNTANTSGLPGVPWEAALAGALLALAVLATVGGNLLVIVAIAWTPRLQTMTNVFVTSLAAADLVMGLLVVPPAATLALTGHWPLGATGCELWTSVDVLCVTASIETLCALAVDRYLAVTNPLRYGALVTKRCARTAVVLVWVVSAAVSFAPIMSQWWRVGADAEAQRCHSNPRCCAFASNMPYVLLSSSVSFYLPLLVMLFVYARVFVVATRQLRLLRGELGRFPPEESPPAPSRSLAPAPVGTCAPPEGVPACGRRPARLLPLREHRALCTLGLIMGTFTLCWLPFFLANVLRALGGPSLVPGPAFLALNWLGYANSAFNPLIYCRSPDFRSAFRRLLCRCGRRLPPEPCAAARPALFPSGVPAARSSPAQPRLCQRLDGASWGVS

COLISTIN
Not Active: IC50 [1] | Ki [1] | IC50 [2] | Ki [2] | IC50 [3] | Ki [3] | IC50 [4] | Ki [4] | IC50 [5] | Ki [5] | IC50 [6] | Ki [6]
